Test results reported in US20230085307A1, “PYRIDAZINONE COMPOUND AND HERBICIDE” (NISSAN CHEMICAL CORPORATION, priority 2019, published 2023).

Assays:
late watergrass = assay: Test Example 1: herbicidal activity, application before weed generation under submerged conditions (Table 16, symbol A); type: in vivo, late watergrass (Echinochloa oryzicola); details: 320 g/ha applied herbicide
Method in brief: (§1)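 Submerged Wagner pots (alluvial soil, 4 cm water) sown with weed seeds and planted with 2.5-leaf rice seedlings; emulsifiable concentrate diluted in water applied to water surface on sowing day. Held in greenhouse at 25-30 °C; injury scored 0-5 by herbicidal rate after three weeks.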

Japanese bulrush = assay: Test Example 1: herbicidal activity, application before weed generation under submerged conditions (Table 16, symbol B); type: in vivo, Japanese bulrush (Schoenoplectus juncoides); details: 320 g/ha applied herbicide
Method in brief: as §1

oval-leafed pondweed = assay: Test Example 1: herbicidal activity, application before weed generation under submerged conditions (Table 16, symbol C); type: in vivo, oval-leafed pondweed (Monochoria vaginalis); details: 320 g/ha applied herbicide
Method in brief: as §1

barnyard grass = assay: Test Example 3: herbicidal effect by foliage application, Wagner pot (Table 18, symbol H); type: in vivo, barnyard grass (Echinochloa crus-galli); details: for herbicidal effect on H: barnyard grass: amount of applied herbicide 320 g/ha; for herbicidal effect on H (barnyard grass), rating 0-5: 320 g/ha
Method in brief: (§2)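 Plants were sown in alluvial soil held under 0.1–0.5 cm standing water and grown 14 days in a greenhouse at 25–30 °C. An emulsifiable formulation, water-diluted to the set dose, was then sprayed onto the foliage, and effects were scored three weeks later using previously defined criteria.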

Chinese sprangletop = assay: Test Example 3: herbicidal effect by foliage application, Wagner pot (Table 18, symbol D); type: in vivo, chinese sprangletop (Leptochloa chinensis); details: for herbicidal effect on D: Chinese sprangletop: amount of applied herbicide 320 g/ha; for herbicidal effect on D (Chinese sprangletop), rating 0-5: 320 g/ha
Method in brief: as §2

rice flat sedge = assay: Test Example 3: herbicidal effect by foliage application, Wagner pot (Table 18, symbol E); type: in vivo, rice flat sedge (Cyperus iria); details: for herbicidal effect on E: rice flat sedge: amount of applied herbicide 320 g/ha; for herbicidal effect on E (rice flat sedge), rating 0-5: 320 g/ha
Method in brief: as §2

Italian ryegrass [1] = assay: Test Example 4: herbicidal effect by soil treatment (Table 19, symbol K); type: in vivo, Italian ryegrass (Lolium multiflorum); details: for herbicidal effect on K: Italian ryegrass: amount of applied herbicide 320 g/ha
Method in brief: (§3)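 Emulsion of test compound, water-diluted to predetermined amount, sprayed on soil after sowing (seed depth ~1.5 cm, sterilized diluvial soil). Greenhouse, 25–30° C. Effect graded at three weeks post-spray.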

windgrass = assay: Test Example 4: herbicidal effect by soil treatment (Table 19, symbol L); type: in vivo, windgrass (Apera spica-venti); details: for herbicidal effect on L: windgrass: amount of applied herbicide 320 g/ha
Method in brief: as §3

lambsquarters [2] = assay: Test Example 4: herbicidal effect by soil treatment (Table 19, symbol O); type: in vivo, lambsquarters (Chenopodium album); details: for herbicidal effect on O: lambsquarters: amount of applied herbicide 320 g/ha
Method in brief: as §3

chickweed = assay: Test Example 4: herbicidal effect by soil treatment (Table 19, symbol P); type: in vivo, common chickweed (Stellaria media); details: for herbicidal effect on P: chickweed: amount of applied herbicide 320 g/ha
Method in brief: as §3

southern crabgrass = assay: Test Example 5: herbicidal effect by foliage application, plastic box (Table 20, symbol F); type: in vivo, southern crabgrass (Digitaria ciliaris); details: foliage application
Method in brief: (§4)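 Post-emergence foliar test in sterilized diluvial soil. Compound applied as water-diluted emulsion at a predetermined rate to 14-day-old plants; evaluation at three weeks.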

green foxtail = assay: Test Example 5: herbicidal effect by foliage application, plastic box (Table 20, symbol G); type: in vivo, green foxtail (Setaria viridis); details: foliage application
Method in brief: as §4

wild oat = assay: Test Example 5: herbicidal effect by foliage application, plastic box (Table 20, symbol I); type: in vivo, wild oat (Avena fatua); details: foliage application
Method in brief: as §4

blackgrass = assay: Test Example 5: herbicidal effect by foliage application, plastic box (Table 20, symbol J); type: in vivo, blackgrass (Alopecurus myosuroides); details: foliage application
Method in brief: as §4

Italian ryegrass [3] = assay: Test Example 5: herbicidal effect by foliage application, plastic box (Table 20, symbol K); type: in vivo, Italian ryegrass (Lolium multiflorum); details: foliage application
Method in brief: as §4

velvetleaf = assay: Test Example 5: herbicidal effect by foliage application, plastic box (Table 20, symbol M); type: in vivo, velvetleaf (Abutilon theophrasti); details: foliage application
Method in brief: as §4

lambsquarters [4] = assay: Test Example 5: herbicidal effect by foliage application, plastic box (Table 20, symbol O); type: in vivo, lambsquarters (Chenopodium album); details: foliage application
Method in brief: as §4

[5] = AAH 320 g/ha, evaluated three weeks after application
[6] = AAH 320 g/ha, three weeks after application
[7] = 320 g/ha, evaluated three weeks after application

CCCC(=O)Oc1c(C)nn(C)c(=O)c1-c1c(-c2ccc(SC(C)C)cc2)sc2ccc(F)cc12 [2-253]
Herbicidal effect on A: late watergrass (grade 0-5) (late watergrass): 5 (Herbicidal rate of 90% or more (almost completely withered))
Herbicidal effect on B: Japanese bulrush (grade 0-5) (Japanese bulrush): 3 (Herbicidal rate of 40% or more and less than 70%)
Herbicidal effect on C: oval-leafed pondweed (grade 0-5) (oval-leafed pondweed): 0 (Herbicidal rate of 5% or less (almost no effect))
herbicidal effect on H: barnyard grass (barnyard grass): 5 (Herbicidal rate of 90% or more (almost completely withered))
herbicidal effect on D: Chinese sprangletop (Chinese sprangletop): 3 (Herbicidal rate of 40% or more and less than 70%)
herbicidal effect on E: rice flat sedge (rice flat sedge): 4 (Herbicidal rate of 70% or more and less than 90%)
herbicidal effect on K: Italian ryegrass (Italian ryegrass [1]): 0 (Herbicidal rate of 5% or less (almost no effect))
herbicidal effect on L: windgrass (windgrass): 0 (Herbicidal rate of 5% or less (almost no effect))
herbicidal effect on O: lambsquarters (lambsquarters [2]): 4 (Herbicidal rate of 70% or more and less than 90%)
herbicidal effect on P: chickweed (chickweed): 3 (Herbicidal rate of 40% or more and less than 70%)
F: southern crabgrass, herbicidal effect (criteria 0-5) (southern crabgrass; [5]): 4 (Herbicidal rate of 70% or more and less than 90%)
G: green foxtail, herbicidal effect (criteria 0-5) (green foxtail; [5]): 5 (Herbicidal rate of 90% or more (almost completely withered))
I: wild oat, herbicidal effect (criteria 0-5) (wild oat; [5]): 2 (Herbicidal rate of 20% or more and less than 40%)
J: blackgrass, herbicidal effect (criteria 0-5) (blackgrass; [5]): 4 (Herbicidal rate of 70% or more and less than 90%)
K: Italian ryegrass, herbicidal effect (criteria 0-5) (Italian ryegrass [3]; [5]): 3 (Herbicidal rate of 40% or more and less than 70%)
M: velvetleaf, herbicidal effect (criteria 0-5) (velvetleaf; [5]): 5 (Herbicidal rate of 90% or more (almost completely withered))
O: lambsquarters, herbicidal effect (criteria 0-5) (lambsquarters [4]; [5]): 4 (Herbicidal rate of 70% or more and less than 90%)

CCCC(=O)Oc1c(C)nn(C)c(=O)c1-c1c(-c2ccc([N+](=O)[O-])cc2)sc2ccccc12 [1-152]
Herbicidal effect on A: late watergrass (grade 0-5) (late watergrass): 4 (Herbicidal rate of 70% or more and less than 90%)
Herbicidal effect on B: Japanese bulrush (grade 0-5) (Japanese bulrush): 3 (Herbicidal rate of 40% or more and less than 70%)
Herbicidal effect on C: oval-leafed pondweed (grade 0-5) (oval-leafed pondweed): 5 (Herbicidal rate of 90% or more (almost completely withered))
herbicidal effect on H (barnyard grass), rating 0-5 (barnyard grass): 5 (Herbicidal rate of 90% or more (almost completely withered))
herbicidal effect on D (Chinese sprangletop), rating 0-5 (Chinese sprangletop): 5 (Herbicidal rate of 90% or more (almost completely withered))
herbicidal effect on E (rice flat sedge), rating 0-5 (rice flat sedge): 3 (Herbicidal rate of 40% or more and less than 70%)
K: Italian ryegrass, herbicidal effect rating (Italian ryegrass [1]; AAH 320 g/ha): 0 (Herbicidal rate of 5% or less (almost no effect))
L: windgrass, herbicidal effect rating (windgrass; AAH 320 g/ha): 0 (Herbicidal rate of 5% or less (almost no effect))
O: lambsquarters, herbicidal effect rating (lambsquarters [2]; AAH 320 g/ha): 0 (Herbicidal rate of 5% or less (almost no effect))
P: chickweed, herbicidal effect rating (chickweed; AAH 320 g/ha): 3 (Herbicidal rate of 40% or more and less than 70%)
F: southern crabgrass, herbicidal effect (southern crabgrass; [6]): 4 (Herbicidal rate of 70% or more and less than 90%)
G: green foxtail, herbicidal effect (green foxtail; [6]): 5 (Herbicidal rate of 90% or more (almost completely withered))
I: wild oat, herbicidal effect (wild oat; [6]): 0 (Herbicidal rate of 5% or less (almost no effect))
J: blackgrass, herbicidal effect (blackgrass; [6]): 0 (Herbicidal rate of 5% or less (almost no effect))
K: Italian ryegrass, herbicidal effect (Italian ryegrass [3]; [6]): 4 (Herbicidal rate of 70% or more and less than 90%)
M: velvetleaf, herbicidal effect (velvetleaf; [6]): 5 (Herbicidal rate of 90% or more (almost completely withered))
O: lambsquarters, herbicidal effect (lambsquarters [4]; [6]): 4 (Herbicidal rate of 70% or more and less than 90%)

CCCC(=O)Oc1c(C)nn(C)c(=O)c1-c1c(-c2cccc(OCC(C)C)c2)sc2ccc(F)cc12 [2-222]
Herbicidal effect on A: late watergrass (grade 0-5) (late watergrass): 5 (Herbicidal rate of 90% or more (almost completely withered))
Herbicidal effect on B: Japanese bulrush (grade 0-5) (Japanese bulrush): 4 (Herbicidal rate of 70% or more and less than 90%)
Herbicidal effect on C: oval-leafed pondweed (grade 0-5) (oval-leafed pondweed): 4 (Herbicidal rate of 70% or more and less than 90%)
herbicidal effect on H: barnyard grass (barnyard grass): 5 (Herbicidal rate of 90% or more (almost completely withered))
herbicidal effect on D: Chinese sprangletop (Chinese sprangletop): 5 (Herbicidal rate of 90% or more (almost completely withered))
herbicidal effect on E: rice flat sedge (rice flat sedge): 4 (Herbicidal rate of 70% or more and less than 90%)
herbicidal effect on K: Italian ryegrass (Italian ryegrass [1]): 2 (Herbicidal rate of 20% or more and less than 40%)
herbicidal effect on L: windgrass (windgrass): 4 (Herbicidal rate of 70% or more and less than 90%)
herbicidal effect on O: lambsquarters (lambsquarters [2]): 4 (Herbicidal rate of 70% or more and less than 90%)
herbicidal effect on P: chickweed (chickweed): 2 (Herbicidal rate of 20% or more and less than 40%)
herbicidal effect on F: southern crabgrass (criteria 0-5) (southern crabgrass; [7]): 5 (Herbicidal rate of 90% or more (almost completely withered))
herbicidal effect on G: green foxtail (criteria 0-5) (green foxtail; [7]): 5 (Herbicidal rate of 90% or more (almost completely withered))
herbicidal effect on I: wild oat (criteria 0-5) (wild oat; [7]): 3 (Herbicidal rate of 40% or more and less than 70%)
herbicidal effect on J: blackgrass (criteria 0-5) (blackgrass; [7]): 4 (Herbicidal rate of 70% or more and less than 90%)
herbicidal effect on K: Italian ryegrass (criteria 0-5) (Italian ryegrass [3]; [7]): 4 (Herbicidal rate of 70% or more and less than 90%)
herbicidal effect on M: velvetleaf (criteria 0-5) (velvetleaf; [7]): 5 (Herbicidal rate of 90% or more (almost completely withered))
herbicidal effect on O: lambsquarters (criteria 0-5) (lambsquarters [4]; [7]): 5 (Herbicidal rate of 90% or more (almost completely withered))

CCCC(=O)Oc1c(C)nn(C)c(=O)c1-c1c(-c2ccc(OC)c(OC)c2)sc2ccc(F)cc12 [2-089]
Herbicidal effect on A: late watergrass (grade 0-5) (late watergrass): 5 (Herbicidal rate of 90% or more (almost completely withered))
Herbicidal effect on B: Japanese bulrush (grade 0-5) (Japanese bulrush): 4 (Herbicidal rate of 70% or more and less than 90%)
Herbicidal effect on C: oval-leafed pondweed (grade 0-5) (oval-leafed pondweed): 4 (Herbicidal rate of 70% or more and less than 90%)
herbicidal effect on H (barnyard grass), rating 0-5 (barnyard grass): 4 (Herbicidal rate of 70% or more and less than 90%)
herbicidal effect on D (Chinese sprangletop), rating 0-5 (Chinese sprangletop): 3 (Herbicidal rate of 40% or more and less than 70%)
herbicidal effect on E (rice flat sedge), rating 0-5 (rice flat sedge): 5 (Herbicidal rate of 90% or more (almost completely withered))
herbicidal effect rating, K: Italian ryegrass (Italian ryegrass [1]; 320 g/ha): 4 (Herbicidal rate of 70% or more and less than 90%)
herbicidal effect rating, L: windgrass (windgrass; 320 g/ha): 0 (Herbicidal rate of 5% or less (almost no effect))
herbicidal effect rating, O: lambsquarters (lambsquarters [2]; 320 g/ha): 5 (Herbicidal rate of 90% or more (almost completely withered))
herbicidal effect rating, P: chickweed (chickweed; 320 g/ha): 3 (Herbicidal rate of 40% or more and less than 70%)
herbicidal effect on F: southern crabgrass (southern crabgrass; [7]): 3 (Herbicidal rate of 40% or more and less than 70%)
herbicidal effect on G: green foxtail (green foxtail; [7]): 5 (Herbicidal rate of 90% or more (almost completely withered))
herbicidal effect on I: wild oat (wild oat; [7]): 0 (Herbicidal rate of 5% or less (almost no effect))
herbicidal effect on J: blackgrass (blackgrass; [7]): 0 (Herbicidal rate of 5% or less (almost no effect))
herbicidal effect on K: Italian ryegrass (Italian ryegrass [3]; [7]): 4 (Herbicidal rate of 70% or more and less than 90%)
herbicidal effect on M: velvetleaf (velvetleaf; [7]): 5 (Herbicidal rate of 90% or more (almost completely withered))
herbicidal effect on O: lambsquarters (lambsquarters [4]; [7]): 4 (Herbicidal rate of 70% or more and less than 90%)
